{
  "source": "patent US12397167B2",
  "about": "“Compositions and methods of altering the electric impedance to an alternating electric field” (NOVOCURE GMBH, priority 2019, dated 2025)",
  "data": [
    {"system": "clathrin-dependent pathway or macro-pinocytosis pathway", "assay": "Effect of endocytosis pathway inhibitors on BTNP accumulation in cytoplasm in response to TTFields", "format": "cell-based", "conditions": "specific inhibitors of clathrin-dependent or macro-pinocytosis pathway", "text": "Nanoparticles (NPs) internalization into cells is known to be dependent on particle size and its zeta potential. NPs under 200 nm can be engulfed by cancer cells through clathrin-dependent pathway or macro-pinocytosis pathway. […] The data herein evidences that increased membrane permeability by TTFields can induce BTNP accumulation in cytoplasm of cancer cells.", "values": [
      {"smiles": "CN(C)CCCN1c2ccccc2Sc2ccc(Cl)cc21", "note": "[chlorpromazine]", "accumulation of BTNPs in cytoplasm in response to TTFields": "did not modulate"},
      {"smiles": "C=C1[C@@H](C)[C@H]2[C@H](Cc3ccccc3)NC(=O)[C@]23[C@H](OC(C)=O)/C=C/[C@@](C)(O)C(=O)[C@@H](C)C/C=C/[C@H]3[C@@H]1O", "note": "[cytochalasin D]", "accumulation of BTNPs in cytoplasm in response to TTFields": "did not modulate"},
      {"smiles": "N=C(N)NC(=O)c1nc(Cl)c(N)nc1N", "note": "[amiloride]", "accumulation of BTNPs in cytoplasm in response to TTFields": "did not modulate"}
    ]}
  ]
}
